Experimental data: US20080027042A1, “Novel Aminopyridine Derivatives Having Aurora a Selective Inhibitory Action” (priority 2004, published 2008)
Values joined by “and” are separate entries in the source; they are usually repeats but may differ in a detail not shown here. Equal entries are not always repeated.

Experiments:
Aurora A = target: T1, Aurora A (Homo sapiens, UniProt O14965); assay: Aurora A inhibitory action (33P-ATP kinase assay, Kemptide substrate); format: biochemical; conditions: 20 μM ATP, 30° C., 20 minutes
T1 construct: histidine tag (N); made in house; host or cells: Escherichia coli BL21-CodonPlus(DE3)-RIL
T1 sequence (O14965 1-403): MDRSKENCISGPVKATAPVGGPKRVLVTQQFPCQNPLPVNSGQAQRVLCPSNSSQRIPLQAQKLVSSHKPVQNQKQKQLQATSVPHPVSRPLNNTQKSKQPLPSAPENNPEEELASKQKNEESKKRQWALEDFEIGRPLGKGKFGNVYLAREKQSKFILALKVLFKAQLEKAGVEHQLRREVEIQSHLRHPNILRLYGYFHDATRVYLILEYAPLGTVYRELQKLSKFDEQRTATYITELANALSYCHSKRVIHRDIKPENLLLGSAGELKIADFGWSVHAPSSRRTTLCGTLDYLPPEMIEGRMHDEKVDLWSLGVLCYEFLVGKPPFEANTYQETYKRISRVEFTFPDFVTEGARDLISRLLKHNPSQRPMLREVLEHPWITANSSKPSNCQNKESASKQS
Procedure, shortened: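 His-tagged Aurora A expressed in E. coli, Ni-purified; reaction in 50 mM Tris pH 7.4, 15 mM Mg acetate, 0.2 mM EDTA with 100 μM Kemptide, 20 μM ATP plus [γ-33P]ATP, 20 min at 30 °C. Phosphopeptide captured on P81 filters and counted by scintillation; DMSO control.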

Aurora B = target: T2, Aurora B (Homo sapiens, UniProt Q96GD4); assay: Aurora B inhibitory action (33P-ATP kinase assay, Kemptide substrate); format: biochemical; conditions: 100 μM ATP, 30° C., 20 minutes
T2 construct: histidine tag (N); made in house; host or cells: Escherichia coli BL21-CodonPlus(DE3)-RIL
Procedure, shortened: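 His-tagged Aurora B expressed in E. coli, reacted with 100 μM Kemptide, 100 μM ATP plus [γ-33P]ATP in Tris pH 7.4, 15 mM Mg acetate, 0.2 mM EDTA, 30 °C, 20 min. Peptide captured on P81 filters for scintillation counting; compounds added from DMSO dilutions.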

[1] = system: Human cervical cancer cells (HeLa S3); assay: Cell growth inhibitory effect, WST-8 method; format: cell-based; conditions: 72 h, HeLa S3, three days incubation
Text: Method for Judging the Pharmaceutical Effect Using cells
Fetal calf serum (FCS) was purchased from Moregate Biotech, and DMEM medium was purchased from Invitrogen Corp. WST-8 was purchased from Kishida Chemical Co., Ltd.
(§1) Human cervical cancer cells (HeLa S3) were obtained from the American Type Culture Collection (ATCC).
(§2) c) Method of Judging the Effect
Cells were suspended in a DMEM medium containing 10% FCS, and the cell suspension was dispensed to a 96-well plastic plate at a rate of 750 cells/l 00 microliters per well. The plate was incubated overnight in 5% CO2-95% air at 37° C. A drug was subjected to graded dilution in dimethylsulfoxide and further diluted with a DMEM medium containing 10% FCS. Then, the dilution was dispensed to the plate on which cells had been disseminated, at a rate of 100 microliters per well. The plate was incubated for further three days in 5% CO2-95% air at 37° C. Cell growth after incubation was measured by the WST-8 method (H. Tominaga, et al., Anal. Commun., 36, 47-50 (1999)). Here, the WST-8 method refers to a method in which 20 microliters of a WST-8 reagent solution is added to each well, incubation is conducted at 37° C. for 45 minutes, the plate is stirred, and the amount of formazan produced is measured by a calorimetric method to determine the inhibitory rate of the drug. The concentration for 50% growth inhibition (EC50, IM) of the compound was determined.

[2] = system: Human cervical cancer cells (HeLa S3); assay: Effect by combined use of drugs in cells (with paclitaxel), WST-8 method; format: cell-based; conditions: three days; for inhibition at 0.1 µM: HeLa S3, compound 0.1 μM alone; for inhibition at 0.1 µM / inhibition at 0.3 µM / inhibition at 1 µM / inhibition at 3 µM: read-out: Cell growth inhibitory effect by sole administration of the compound of Example (%); for inhibition at 0.3 µM: HeLa S3, compound 0.3 μM alone; for inhibition at 1 µM: HeLa S3, compound 1.0 μM alone; for inhibition at 3 µM: HeLa S3, compound 3.0 μM alone
Text: Method for Judging the Effect by Combined Use of Drugs in Cells
Fetal calf serum (FCS) was purchased from Moregate Biotech, DMEM medium from Invitrogen Corp., paclitaxel (tradename: Taxol) from Sigma-Aldrich, Inc., and WST-8 from Kishida Chemical Co., Ltd.
as §1, §2
Cells were suspended in a DMEM medium containing 10% FCS, and the cell suspension was dispensed to two 96-well plastic plates at a rate of 750 cells/100 microliters per well. The plates were incubated overnight in 5% CO2-95% air at 37° C. A drug was subjected to graded dilution in dimethylsulfoxide and flurther diluted with DMSO or with a DMEM medium containing 10% FCS and also containing 2 nM paclitaxel. Then, the dilutions were each dispensed to one of the plates on which cells had been disseminated, at a rate of 100 microliters per well. The final concentration of paclitaxel at this stage was 1 nM. Also, the concentrations in the case of sole administration of the compound according to the invention were 0.03, 0.1, 0.3, 1 and 3 μM. The plates were incubated for further three days in 5% CO2-95% air at 37° C. Cell growth after incubation was measured by the WST-8 method (H. Tominaga, et al., Anal. Commun., 36, 47-50 (1999)). Here, the WST-8 method refers to a method in which 20 microliters of a WST-8 reagent solution is added to each well, incubation is conducted at 37° C. for 45 minutes, the plate is stirred, and the amount of formazan produced is measured by a colorimetric method to determine the inhibitory rate of the drug. The growth inhibitory effects of paclitaxel and of the compound according to the invention were determined, with the value obtained in sole treatment of DMSO being defined as 0%.

[3] = HeLa S3, compound 0.1 μM + paclitaxel 1 nM
[4] = HeLa S3, compound 0.3 μM + paclitaxel 1 nM
[5] = HeLa S3, compound 1.0 μM + paclitaxel 1 nM
[6] = HeLa S3, compound 3.0 μM + paclitaxel 1 nM

T2 sequence (Q96GD4 whole entry): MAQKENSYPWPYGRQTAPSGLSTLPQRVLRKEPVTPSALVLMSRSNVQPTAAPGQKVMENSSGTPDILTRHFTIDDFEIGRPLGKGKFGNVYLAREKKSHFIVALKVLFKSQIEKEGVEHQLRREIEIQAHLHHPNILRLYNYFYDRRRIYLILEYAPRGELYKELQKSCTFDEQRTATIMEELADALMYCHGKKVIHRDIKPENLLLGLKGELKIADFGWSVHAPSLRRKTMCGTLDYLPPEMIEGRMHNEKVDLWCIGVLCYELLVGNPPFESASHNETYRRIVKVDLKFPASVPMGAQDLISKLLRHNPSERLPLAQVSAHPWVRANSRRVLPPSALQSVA

| SMILES | IC50 (Aurora A) [nM] | IC50 (Aurora B) [nM] | IC50 [1] [nM] | Cell growth inhibitory effect by combined administration of paclitaxel and the compound of Example (%) [2, 3] [%] | inhibition at 0.1 µM ([2]; Homo sapiens, HeLa S3, 72 h) [%] | Cell growth inhibitory effect by combined administration of paclitaxel and the compound of Example (%) [2, 4] [%] | inhibition at 0.3 µM ([2]; Homo sapiens, HeLa S3, 72 h) [%] | Cell growth inhibitory effect by combined administration of paclitaxel and the compound of Example (%) [2, 5] [%] | inhibition at 1 µM ([2]; Homo sapiens, HeLa S3, 72 h) [%] | Cell growth inhibitory effect by combined administration of paclitaxel and the compound of Example (%) [2, 6] [%] | inhibition at 3 µM ([2]; Homo sapiens, HeLa S3, 72 h) [%] | Cell growth inhibitory effect by sole administration of paclitaxel (1 nM) (%) ([2]; HeLa S3, paclitaxel 1 nM alone) | inhibition at 0.001 µM ([2]; Homo sapiens, HeLa S3, 72 h, HeLa S3, paclitaxel 1 nM alone, read-out: Cell growth inhibitory effect by sole administration of paclitaxel (1 nM) (%)) [%] |
| --- | --- | --- | --- | --- | --- | --- | --- | --- | --- | --- | --- | --- | --- |
| O=C(c1cccc(Cl)c1F)N1CCN(Cc2cccc(Nc3nccs3)n2)CC1 [Example 5, 6-((4-(3-chloro-2-fluorobenzoyl)piperazin-1-yl)methyl)-N-thiazol-2-ylpyridin-2-amine] | 0.67 | 440 | 11000 | 72.8 | 0 |  |  |  |  |  |  |  |  |
| O=C(c1cccc(Cl)c1Cl)N1CCN(Cc2cccc(Nc3nccs3)n2)CC1 [Example 6, 6-((4-(2,3-dichlorobenzoyl)piperazin-1-yl)methyl)-N-thiazol-2-ylpyridin-2-amine] | 0.5 | 200 | 400 |  |  | 89.0 | 19.6 |  |  |  |  |  |  |
| Cc1cccc(C(=O)N2CCN(Cc3cccc(Nc4nccs4)n3)CC2)c1F [Example 8, 6-((4-(2-fluoro-3-methylbenzoyl)piperazin-1-yl)methyl)-N-thiazol-2-ylpyridin-2-amine] | 1.9 | 1400 | 250 | 87.1 | 4.6 |  |  |  |  |  |  |  |  |
| O=C(c1cccc(Cl)c1Cl)N1CCN(Cc2cccc(Nc3cc[nH]n3)n2)CC1 [Example 17, 6-((4-(2,3-dichlorobenzoyl)piperazin-1-yl)methyl)-N-1H-pyrazol-3-ylpyridin-2-amine] | 1.2 | 3200 | 1100 |  |  | 73.8 | 0 |  |  |  |  |  |  |
| O=C(O)C(F)(F)F.O=C(c1cccc(C(F)(F)F)c1F)N1CCN(Cc2cccc(Nc3cc[nH]n3)n2)CC1 [Example 19, 6-((4-(2-fluoro-3-(trifluoromethyl)benzoyl)piperazin-1-yl)methyl)-N-1H-pyrazol-3-ylpyridin-2-amine trifluoroacetate] | 0.9 | 530 | 920 | 77.6 | 0 |  |  |  |  |  |  |  |  |
| O=C(c1cccc(C(F)F)c1F)N1CCN(Cc2cccc(Nc3cc[nH]n3)n2)CC1 [Example 22, 6-((4-(3-(difluoromethyl)-2-fluorobenzoyl)piperazin-1-yl)methyl)-N-1H-pyrazol-3-ylpyridin-2-amine] | 2.9 | 1500 | 3500 |  |  |  |  | 80.9 | 18.5 |  |  |  |  |
| Cc1cc(Nc2cccc(CN3CCN(C(=O)c4cccc(Cl)c4F)CC3)n2)n[nH]1 [Example 25, 6-((4-(3-chloro-2-fluorobenzoyl)piperazin-1-yl)methyl)-N-(5-methyl-1H-pyrazol-3-yl)pyridin-2-amine] | 1.1 | 770 | 800 | 65.1 | 0 |  |  |  |  |  |  |  |  |
| Cc1cc(Nc2cccc(CN3CCN(C(=O)c4cccc(Br)c4F)CC3)n2)n[nH]1 [Example 28, 6-((4-(3-bromo-2-fluorobenzoyl)piperazin-1-yl)methyl)-N-(5-methyl-1H-pyrazol-3-yl)pyridin-2-amine] | 0.52 | 310 | 1100 |  |  | 84.5 | 0 |  |  |  |  |  |  |
| Cc1cc(Nc2cccc(CN3CCN(C(=O)c4cccc(C(F)(F)F)c4F)CC3)n2)n[nH]1 [Example 29, 6-((4-(2-fluoro-3-(trifluoromethyl)benzoyl)piperazin-1-yl)methyl)-N-(5-methyl-1H-pyrazol-3-yl)pyridin-2-amine] | 0.97 | 590 | 3300 |  |  | 77.3 | 0 |  |  |  |  |  |  |
| Cc1cc(Nc2cccc(CN3CCN(C(=O)c4cccc(C(F)(F)F)c4Cl)CC3)n2)n[nH]1 [Example 30, 6-((4-(2-chloro-3-(trifluoromethyl)benzoyl)piperazin-1-yl)methyl)-N-(5-methyl-1H-pyrazol-3-yl)pyridin-2-amine] | 1.1 | 320 | 2500 |  |  |  |  | 90.1 | 29.1 |  |  |  |  |
| O=C(O)C(F)(F)F.O=C(c1cccc(Cl)c1Cl)N1CCN(Cc2cccc(Nc3ncns3)n2)CC1 [Example 36, 6-((4-(2,3-dichlorobenzoyl)piperazin-1-yl)methyl)-N-1,2,4-thiadiazol-5-ylpyridin-2-amine trifluoroacetate] | 2.6 | 3200 | 6800 |  |  |  |  |  |  | 83.4 | 17.2 |  |  |
| O=C(c1ccccc1C(F)(F)F)N1CCN(Cc2cccc(Nc3ncns3)n2)CC1 [Example 39, 6-((4-(2-(trifluoromethyl)benzoyl)piperazin-1-yl)methyl)-N-1,2,4-thiadiazol-5-ylpyridin-2-amine] | 67 | 9100 | 11000 |  |  |  |  |  |  | 72.2 | 5.4 |  |  |
| O=C(c1cccc(C(F)(F)F)c1F)N1CCN(Cc2cccc(Nc3ncns3)n2)CC1 [Example 40, 6-((4-(2-fluoro-3-(trifluoromethyl)benzoyl)piperazin-1-yl)methyl)-N-1,2,4-thiadiazol-5-ylpyridin-2-amine] | 0.99 | 1900 | 6500 |  |  |  |  | 76.9 | 6.5 |  |  |  |  |
| CC(=O)O[C@H]1C(=O)[C@@]2(C)[C@H]([C@H](OC(=O)c3ccccc3)[C@]3(O)C[C@H](OC(=O)[C@H](O)[C@@H](NC(=O)c4ccccc4)c4ccccc4)C(C)=C1C3(C)C)[C@]1(OC(C)=O)CO[C@@H]1C[C@@H]2O [paclitaxel, reference compound] |  |  |  |  |  |  |  |  |  |  |  | 37.8% and 45.4% and 43.3% and 36.8% | 44.1 |
